Literature values in PMC7395068, “The evolution of strategies to minimise the risk of human drug-induced liver injury (DILI) in drug discovery and development” (Archives of Toxicology, 2020).
Where two headings read alike, the source gives them in different places.

How the values were obtained:
[1] = cited from earlier work
[2] = system: primary human hepatocytes, NIH3T3 fibroblasts, BSEP, CYP3A4; details: In vitro Assay; ref Schadt 2015; cited from earlier work
[3] = system: THLE-Null and THLE-3A4 cells; details: In vitro Assay; ref Gustafsson 2014; cited from earlier work
[4] = system: rBsep; details: In vitro Assay; ref Dawson 2012; cited from earlier work
[5] = cited from earlier work; remark: listed apart in the source
[6] = cited from earlier work; remark: listed apart in the source
[7] = system: isolated mouse liver mitochondria; details: In vitro Assay; ref Porceddu 2012; cited from earlier work
[8] = system: THLE or HepG2 cells, isolated mitochondria, BSEP; details: cited from earlier work
[9] = system: HepG2 cells; details: In vitro Assay; ref Persson 2013; cited from earlier work
[10] = system: HepG2 cells, primary human hepatocytes; details: cited from earlier work
[11] = system: human hepatocytes; details: cited from earlier work
[12] = system: HepG2 cells; details: In vitro Assay; ref O'Brien 2006; cited from earlier work
[13] = system: PHH spheroids; details: In vitro Assay; ref Vorrink 2018; cited from earlier work
[14] = In vitro Assay, ref Garside 2014

SMILES: Nc1nc2c(ncn2COCCO)c(=O)[nH]1 [acyclovir]
- DILI +VE (5-8), DILI -VE (-4) ([1]; in vivo): +VE
- DILI severity category ([1]; in vivo): vLess-DILI-Concern
- Cellular toxicity (3T3 cells) [2]: -VE
- Combined Assay [2]: -VE
- GSH adduct HML [2]: -VE
- Hepatocyte cellular toxicity [2]: -VE
- MitoTox 3T3 [2]: -VE
- TDI CYP3A4 [2]: -VE
- hBSEP inhibition [2]: -VE
- THLE-Null [3]: -VE
- Inhibition of rBsep cutoff<1& cmax u>.2 [4]: -VE
- Inhibition of rBsep cutoff<3 [4]: -VE
- DILI Score (FDA) (1-8) ([5]; in vivo): 5

SMILES: CC1(C)S[C@@H]2[C@H](NC(=O)[C@H](N)c3ccc(O)cc3)C(=O)N2[C@H]1C(=O)O [amoxicillin]
- DILI +VE (5-8), DILI -VE (-4) ([1]; ref Chen 2016): +VE
- DILI severity category ([1]; ref Chen 2016): vLess-DILI-Concern
- In vivo DILI ([6]; […]): -VE
- In vivo DILI ([6]; ref Aleo 2019): +VE
- In vivo DILI ([6]; ref Dawson 2012): -VE
- In vivo DILI ([6]; ref Garside 2014): +VE
- In vivo DILI ([6]; ref Gustafsson 2014): +VE
- In vivo DILI ([6]; ref Porceddu 2012): +VE
- In vivo DILI ([6]; ref Schadt 2015): -VE
- THLE-Null [3]: -VE
- in vitro data EC2<=1x Cmax [7]: +VE
- in vitro data EC20<=2uM [7]: +VE
- Partition Hybrid HRM Score ([8]; In vitro Assay, ref Aleo 2019): -VE
- Ro2 Hybrid HRM Score ([8]; In vitro Assay, ref Aleo 2019): -VE
- Inhibition of rBsep cutoff<1& cmax u>.2 [4]: -VE
- Inhibition of rBsep cutoff<3 [4]: -VE
- DILI Score (FDA) (1-8) ([5]; ref Chen 2011): 3

SMILES: CC(O)(CS(=O)(=O)c1ccc(F)cc1)C(=O)Nc1ccc(C#N)c(C(F)(F)F)c1 (centres unmarked) [bicalutamide]
- Cluser analysis [9]: -VE
- Structural based (HCI) [9]: +VE
- DILI +VE (5-8), DILI -VE (-4) ([1]; ref Chen 2016): +VE
- DILI severity category ([1]; ref Chen 2016): vMost-DILI-Concern
- Cluster 1-6 +VE Assay [10, 14]: +VE
- In vivo DILI ([6]; ref Aleo 2019): +VE
- In vivo DILI ([6]; ref Garside 2014): +VE
- In vivo DILI ([6]; ref Persson 2013): +VE
- In vivo DILI ([6]; ref Xu 2008): +VE
- Structural based (HCI) ([11]; In vitro Assay, ref Xu 2008): -VE
- DILI Score (FDA) (1-8) ([5]; ref Chen 2011): 8

SMILES: CC(C)Cc1ccc(C(C)C(=O)O)cc1 (centres unmarked) [ibuprofen]
- Structural based (HCI) [9]: +VE
- DILI +VE (5-8), DILI -VE (-4) ([1]; in vivo): +VE
- DILI severity category ([1]; in vivo): vLess-DILI-Concern
- Cellular toxicity (3T3 cells) [2]: -VE
- Combined Assay [2]: -VE
- GSH adduct HML [2]: -VE
- Hepatocyte cellular toxicity [2]: -VE
- MitoTox 3T3 [2]: -VE
- TDI CYP3A4 [2]: -VE
- hBSEP inhibition [2]: -VE
- THLE-Null [3]: -VE
- in vitro data EC2<=1x Cmax [7]: +VE
- in vitro data EC20<=2uM [7]: +VE
- Inhibition of rBsep cutoff<1& cmax u>.2 [4]: -VE
- Inhibition of rBsep cutoff<3 [4]: +VE
- DILI Score (FDA) (1-8) ([5]; in vivo): 3
- Structural based (HCI) [12]: +VE

SMILES: CC1=C(/C=C/C(C)=C/C=C/C(C)=C\C(=O)O)C(C)(C)CCC1 [isotretinoin]
- DILI +VE (5-8), DILI -VE (-4) ([1]; ref Chen 2016): +VE
- DILI severity category ([1]; ref Chen 2016): vMost-DILI-Concern
- Cluster 1-6 +VE Assay [10, 14]: +VE
- In vivo DILI ([6]; ref Garside 2014): +VE
- In vivo DILI ([6]; ref O'Brien 2006): +VE
- In vivo DILI ([6]; ref Xu 2008): +VE
- Structural based (HCI) ([11]; In vitro Assay, ref Xu 2008): +VE
- DILI Score (FDA) (1-8) ([5]; ref Chen 2011): 2
- Structural based (HCI) [12]: -VE

SMILES: Sc1ncnc2nc[nH]c12 [mercaptopurine]
- Cluser analysis [9]: +VE
- Structural based (HCI) [9]: +VE
- DILI +VE (5-8), DILI -VE (-4) ([1]; ref Chen 2016): +VE
- DILI severity category ([1]; ref Chen 2016): vMost-DILI-Concern
- hLiMTs ATP <20 x Cmax [13]: +VE (IC20 < 20 × Cmax.tot cut-off)
- In vivo DILI ([6]; […]): +VE
- In vivo DILI ([6]; ref Aleo 2019): +VE
- In vivo DILI ([6]; ref O'Brien 2006): +VE
- In vivo DILI ([6]; ref Persson 2013): +VE
- In vivo DILI ([6]; ref Porceddu 2012): +VE
- In vivo DILI ([6]; ref Vorrink 2018): +VE
- In vivo DILI ([6]; ref Xu 2008): +VE
- Structural based (HCI) ([11]; In vitro Assay, ref Xu 2008): -VE
- in vitro data EC2<=1x Cmax [7]: -VE
- in vitro data EC20<=2uM [7]: +VE
- Partition Hybrid HRM Score ([8]; In vitro Assay, ref Aleo 2019): +VE
- Ro2 Hybrid HRM Score ([8]; In vitro Assay, ref Aleo 2019): +VE
- DILI Score (FDA) (1-8) ([5]; ref Chen 2011): 8
- Structural based (HCI) [12]: +VE

SMILES: O=C1CC[C@@]2(O)[C@H]3Cc4ccc(O)c5c4[C@@]2(CCN3CC2CC2)[C@H]1O5 [naltrexone]
- DILI +VE (5-8), DILI -VE (-4) ([1]; in vivo): -VE
- DILI severity category ([1]; in vivo): Ambiguous DILI-concern
- In vivo DILI ([6]; in vivo): +VE
- THLE-Null [3]: -VE
- THLE-Null/3A4 [3]: -VE
- Structural based (HCI) ([11]; In vitro Assay, ref Xu 2008): -VE
- DILI Score (FDA) (1-8) ([5]; in vivo): 3

SMILES: CNC(=C[N+](=O)[O-])NCCSCc1ccc(CN(C)C)o1 [ranitidine]
- DILI +VE (5-8), DILI -VE (-4) ([1]; ref Chen 2016): +VE
- DILI severity category ([1]; ref Chen 2016): vLess-DILI-Concern
- In vivo DILI ([6]; […]): +VE
- In vivo DILI ([6]; ref Aleo 2019): +VE
- In vivo DILI ([6]; ref Dawson 2012): +VE
- In vivo DILI ([6]; ref Garside 2014): +VE
- In vivo DILI ([6]; ref Gustafsson 2014): +VE
- In vivo DILI ([6]; ref Porceddu 2012): +VE
- In vivo DILI ([6]; ref Xu 2008): -VE
- THLE-Null [3]: -VE
- in vitro data EC2<=1x Cmax [7]: +VE
- in vitro data EC20<=2uM [7]: -VE
- Partition Hybrid HRM Score ([8]; In vitro Assay, ref Aleo 2019): -VE
- Ro2 Hybrid HRM Score ([8]; In vitro Assay, ref Aleo 2019): -VE
- Inhibition of rBsep cutoff<1& cmax u>.2 [4]: -VE
- Inhibition of rBsep cutoff<3 [4]: -VE
- DILI Score (FDA) (1-8) ([5]; ref Chen 2011): 5

SMILES: CO[C@H]1/C=C/O[C@@]2(C)Oc3c(C)c(O)c4c(O)c(c(/C=N/N5CCN(C)CC5)c(O)c4c3C2=O)NC(=O)/C(C)=C\C=C\[C@H](C)[C@H](O)[C@@H](C)[C@@H](O)[C@@H](C)[C@H](OC(C)=O)[C@@H]1C [rifampin]
- DILI +VE (5-8), DILI -VE (-4) ([1]; ref Chen 2016): +VE
- DILI severity category ([1]; ref Chen 2016): vMost-DILI-Concern
- Cluster 1-6 +VE Assay [10, 14]: -VE
- In vivo DILI ([6]; […]): +VE
- In vivo DILI ([6]; ref Aleo 2019): +VE
- In vivo DILI ([6]; ref Garside 2014): +VE
- Partition Hybrid HRM Score ([8]; In vitro Assay, ref Aleo 2019): +VE
- Ro2 Hybrid HRM Score ([8]; In vitro Assay, ref Aleo 2019): +VE
- DILI Score (FDA) (1-8) ([5]; ref Chen 2011): 8

SMILES: CN(C)[C@@H]1C(O)=C(C(N)=O)C(=O)[C@@]2(O)C(O)=C3C(=O)c4c(O)cccc4[C@@](C)(O)[C@H]3C[C@@H]12 [tetracycline]
- DILI +VE (5-8), DILI -VE (-4) ([1]; in vivo): +VE
- DILI severity category ([1]; in vivo): vLess-DILI-Concern
- hLiMTs ATP <20 x Cmax [13]: +VE (IC20 < 20 × Cmax.tot cut-off)
- Cluster 1-6 +VE Assay [10]: -VE
- Structural based (HCI) [11]: +VE
- DILI Score (FDA) (1-8) ([5]; in vivo): 2

SMILES: CN1CCN(CCCN2c3ccccc3Sc3ccc(C(F)(F)F)cc32)CC1 [trifluoperazine, reference compound]
- DILI +VE (5-8), DILI -VE (-4) ([1]; ref Chen 2016): -VE
- DILI severity category ([1]; ref Chen 2016): Ambiguous DILI-concern
- hLiMTs ATP <20 x Cmax [13]: -VE
- Cluster 1-6 +VE Assay [10, 14]: +VE
- in vivo DILI classification in publications of Supplemental Table 1 ([6]; publications disagreeing with the LTKB classification, ref Supplemental Table 1 publications): DILI positive in vivo
- In vivo DILI ([6]; ref Garside 2014): +VE
- In vivo DILI ([6]; ref O'Brien 2006): +VE
- In vivo DILI ([6]; ref Vorrink 2018): +VE
- In vivo DILI ([6]; ref Xu 2008): +VE
- Structural based (HCI) ([11]; In vitro Assay, ref Xu 2008): +VE
- DILI Score (FDA) (1-8) ([5]; ref Chen 2011): 2
- Structural based (HCI) [12]: -VE

SMILES: COc1ccc(C(CN(C)C)C2(O)CCCCC2)cc1 (centres unmarked) [venlafaxine]
- DILI +VE (5-8), DILI -VE (-4) ([1]; in vivo): +VE
- DILI severity category ([1]; in vivo): vLess-DILI-Concern
- Cluster 1-6 +VE Assay [10]: -VE
- Partition Hybrid HRM Score [8]: +VE
- Ro2 Hybrid HRM Score [8]: +VE
- DILI Score (FDA) (1-8) ([5]; in vivo): 7
